{"source": "paper PMC9150124", "about": "“Design of a Potent, Selective, and Brain-Penetrant Inhibitor of Wnt-Deactivating Enzyme Notum by Optimization of a Crystallographic Fragment Hit” (Journal of Medicinal Chemistry, 2022)", "experiment_in_all_cases": "SelectScreen kinase profiling, SSBK ZLyte SP Technology", "format_in_all_cases": "biochemical", "key": {"[1]": {"target": "kinase named in conditions (Homo sapiens, UniProt Q9Y6M4)", "sequence (Q9Y6M4 whole entry)": "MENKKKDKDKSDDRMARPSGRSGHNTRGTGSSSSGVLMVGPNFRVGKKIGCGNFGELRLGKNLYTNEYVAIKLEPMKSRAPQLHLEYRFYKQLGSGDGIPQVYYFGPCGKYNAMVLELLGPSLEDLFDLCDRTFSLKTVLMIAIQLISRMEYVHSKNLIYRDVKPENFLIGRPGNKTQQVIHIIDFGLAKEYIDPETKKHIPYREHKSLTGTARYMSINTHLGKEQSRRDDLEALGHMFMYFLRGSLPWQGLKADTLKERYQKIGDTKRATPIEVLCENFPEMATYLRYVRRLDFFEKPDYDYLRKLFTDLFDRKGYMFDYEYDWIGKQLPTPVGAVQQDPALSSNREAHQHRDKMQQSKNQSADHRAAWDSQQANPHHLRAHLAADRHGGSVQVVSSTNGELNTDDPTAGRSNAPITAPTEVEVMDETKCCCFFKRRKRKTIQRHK", "conditions": "CSNK1G3 (CK1 gamma 3), 10 μM", "method": "(§1) Kinase selectivity screening was performed by Thermo Fisher Scientific (Paisley, U.K.) in their SelectScreen Biochemical Kinase Profiling Service. Assay information and data are presented in the Supporting Information.\n(§2) Kinase selectivity screening was performed by ThermoFisher Scientific (Paisley, U.K.) in their SelectScreenTM\n(§3) Biochemical Kinase Profiling service ."}, "[2]": {"target": "kinase named in conditions (Homo sapiens, UniProt P51817)", "sequence (P51817 whole entry)": "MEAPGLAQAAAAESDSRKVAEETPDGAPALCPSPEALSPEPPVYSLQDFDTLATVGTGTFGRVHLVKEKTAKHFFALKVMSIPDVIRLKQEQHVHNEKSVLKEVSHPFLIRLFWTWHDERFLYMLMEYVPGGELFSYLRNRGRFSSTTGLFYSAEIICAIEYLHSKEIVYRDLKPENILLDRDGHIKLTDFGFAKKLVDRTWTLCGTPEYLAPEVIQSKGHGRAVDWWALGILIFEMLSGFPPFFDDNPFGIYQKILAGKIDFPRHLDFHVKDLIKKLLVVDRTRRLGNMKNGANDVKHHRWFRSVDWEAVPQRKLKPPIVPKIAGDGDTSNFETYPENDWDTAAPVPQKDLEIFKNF", "conditions": "PRKX, 10 μM", "method": "as §1, §2, §3"}, "[3]": {"target": "kinase named in conditions (Homo sapiens, UniProt P36888)", "conditions": "FLT3, 10 μM", "method": "as §1, §2, §3"}, "[4]": {"target": "kinase named in conditions (Homo sapiens, UniProt Q6VAB6)", "conditions": "KSR2, 10 μM", "method": "as §1, §2, §3"}, "[5]": {"target": "kinase named in conditions (Homo sapiens, UniProt P78368)", "conditions": "CSNK1G2 (CK1 gamma 2), 10 μM", "method": "as §1, §2, §3"}, "[6]": {"target": "kinase named in conditions (Homo sapiens, UniProt P43250)", "conditions": "GRK6, 10 μM", "method": "as §1, §2, §3"}, "[7]": {"target": "kinase named in conditions (Homo sapiens, UniProt O60674, V617F)", "sequence (O60674 whole entry V617F)": "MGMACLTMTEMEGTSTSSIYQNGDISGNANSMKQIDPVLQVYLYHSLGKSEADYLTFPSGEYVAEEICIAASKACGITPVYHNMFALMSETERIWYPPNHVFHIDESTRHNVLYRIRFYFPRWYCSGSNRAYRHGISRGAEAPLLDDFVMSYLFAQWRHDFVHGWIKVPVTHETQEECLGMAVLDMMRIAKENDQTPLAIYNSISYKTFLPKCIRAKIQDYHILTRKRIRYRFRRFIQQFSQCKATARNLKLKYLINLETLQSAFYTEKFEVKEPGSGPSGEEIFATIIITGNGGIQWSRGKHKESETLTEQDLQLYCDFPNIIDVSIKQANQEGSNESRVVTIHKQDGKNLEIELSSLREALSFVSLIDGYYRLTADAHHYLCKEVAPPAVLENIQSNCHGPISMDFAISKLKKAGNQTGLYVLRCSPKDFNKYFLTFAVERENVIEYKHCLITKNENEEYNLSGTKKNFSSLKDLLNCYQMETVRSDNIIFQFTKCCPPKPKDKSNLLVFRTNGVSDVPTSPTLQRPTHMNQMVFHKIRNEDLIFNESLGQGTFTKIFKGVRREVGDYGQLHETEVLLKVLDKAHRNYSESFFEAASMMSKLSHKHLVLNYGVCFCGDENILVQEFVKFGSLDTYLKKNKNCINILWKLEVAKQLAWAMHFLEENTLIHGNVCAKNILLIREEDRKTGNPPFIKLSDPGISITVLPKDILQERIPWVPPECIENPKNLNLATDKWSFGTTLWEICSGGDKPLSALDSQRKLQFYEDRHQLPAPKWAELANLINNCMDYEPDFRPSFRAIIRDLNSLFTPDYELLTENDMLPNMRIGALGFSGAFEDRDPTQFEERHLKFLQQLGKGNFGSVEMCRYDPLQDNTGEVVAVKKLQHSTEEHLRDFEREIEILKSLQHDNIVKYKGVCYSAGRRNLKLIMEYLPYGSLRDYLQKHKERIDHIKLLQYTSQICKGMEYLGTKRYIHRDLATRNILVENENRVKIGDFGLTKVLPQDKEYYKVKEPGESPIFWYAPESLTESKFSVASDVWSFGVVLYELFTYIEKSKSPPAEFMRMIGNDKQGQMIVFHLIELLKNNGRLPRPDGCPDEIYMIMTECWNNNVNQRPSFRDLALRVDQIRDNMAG", "conditions": "JAK2 JH1 JH2 V617F, 10 μM", "method": "as §1, §2, §3"}, "[8]": {"target": "kinase named in conditions (Homo sapiens, UniProt P49761)", "sequence (P49761 whole entry)": "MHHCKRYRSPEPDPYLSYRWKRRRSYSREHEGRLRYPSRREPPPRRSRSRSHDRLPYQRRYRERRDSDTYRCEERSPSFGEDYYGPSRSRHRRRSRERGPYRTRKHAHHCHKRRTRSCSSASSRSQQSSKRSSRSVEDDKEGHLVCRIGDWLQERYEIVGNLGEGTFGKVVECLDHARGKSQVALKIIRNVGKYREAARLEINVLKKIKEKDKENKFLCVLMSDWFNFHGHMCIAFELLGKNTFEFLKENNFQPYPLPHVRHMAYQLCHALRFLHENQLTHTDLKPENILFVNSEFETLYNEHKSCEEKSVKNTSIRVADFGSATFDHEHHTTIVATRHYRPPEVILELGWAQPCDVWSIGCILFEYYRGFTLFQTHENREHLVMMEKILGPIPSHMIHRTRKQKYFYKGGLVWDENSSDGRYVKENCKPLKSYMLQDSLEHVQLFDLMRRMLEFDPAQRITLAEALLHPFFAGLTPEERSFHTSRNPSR", "conditions": "CLK3, 10 μM", "method": "as §1, §2, §3"}, "[9]": {"target": "kinase named in conditions (Homo sapiens, UniProt P29322)", "conditions": "EPHA8, 10 μM", "method": "as §1, §2, §3"}, "[10]": {"target": "kinase named in conditions (Homo sapiens, UniProt Q15139)", "sequence (Q15139 whole entry)": "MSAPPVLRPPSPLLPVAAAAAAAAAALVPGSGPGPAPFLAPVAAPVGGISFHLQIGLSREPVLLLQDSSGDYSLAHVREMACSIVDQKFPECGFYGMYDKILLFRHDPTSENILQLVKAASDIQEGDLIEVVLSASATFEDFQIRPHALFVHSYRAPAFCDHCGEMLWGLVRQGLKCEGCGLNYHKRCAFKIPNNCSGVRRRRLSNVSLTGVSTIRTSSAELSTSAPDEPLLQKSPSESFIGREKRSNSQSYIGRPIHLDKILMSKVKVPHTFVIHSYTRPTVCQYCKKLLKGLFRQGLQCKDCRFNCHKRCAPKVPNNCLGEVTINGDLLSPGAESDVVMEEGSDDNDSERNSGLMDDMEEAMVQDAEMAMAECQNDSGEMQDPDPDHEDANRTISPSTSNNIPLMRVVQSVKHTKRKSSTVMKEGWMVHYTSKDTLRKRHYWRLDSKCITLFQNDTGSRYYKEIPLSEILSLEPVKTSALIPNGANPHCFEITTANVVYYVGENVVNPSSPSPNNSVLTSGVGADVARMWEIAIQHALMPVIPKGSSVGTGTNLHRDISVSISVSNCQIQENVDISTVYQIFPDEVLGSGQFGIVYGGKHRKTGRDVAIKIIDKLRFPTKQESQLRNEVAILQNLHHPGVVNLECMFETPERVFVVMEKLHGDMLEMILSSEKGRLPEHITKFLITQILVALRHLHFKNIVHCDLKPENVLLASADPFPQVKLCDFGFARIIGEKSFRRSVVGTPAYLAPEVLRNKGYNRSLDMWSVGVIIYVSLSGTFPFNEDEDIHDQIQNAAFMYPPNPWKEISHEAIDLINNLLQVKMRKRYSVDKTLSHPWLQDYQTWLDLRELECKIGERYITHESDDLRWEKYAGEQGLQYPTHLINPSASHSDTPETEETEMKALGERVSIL", "conditions": "PRKD1 (PKC mu), 10 μM", "method": "as §1, §2, §3"}, "[11]": {"target": "kinase named in conditions (Homo sapiens, UniProt Q12851)", "sequence (Q12851 whole entry)": "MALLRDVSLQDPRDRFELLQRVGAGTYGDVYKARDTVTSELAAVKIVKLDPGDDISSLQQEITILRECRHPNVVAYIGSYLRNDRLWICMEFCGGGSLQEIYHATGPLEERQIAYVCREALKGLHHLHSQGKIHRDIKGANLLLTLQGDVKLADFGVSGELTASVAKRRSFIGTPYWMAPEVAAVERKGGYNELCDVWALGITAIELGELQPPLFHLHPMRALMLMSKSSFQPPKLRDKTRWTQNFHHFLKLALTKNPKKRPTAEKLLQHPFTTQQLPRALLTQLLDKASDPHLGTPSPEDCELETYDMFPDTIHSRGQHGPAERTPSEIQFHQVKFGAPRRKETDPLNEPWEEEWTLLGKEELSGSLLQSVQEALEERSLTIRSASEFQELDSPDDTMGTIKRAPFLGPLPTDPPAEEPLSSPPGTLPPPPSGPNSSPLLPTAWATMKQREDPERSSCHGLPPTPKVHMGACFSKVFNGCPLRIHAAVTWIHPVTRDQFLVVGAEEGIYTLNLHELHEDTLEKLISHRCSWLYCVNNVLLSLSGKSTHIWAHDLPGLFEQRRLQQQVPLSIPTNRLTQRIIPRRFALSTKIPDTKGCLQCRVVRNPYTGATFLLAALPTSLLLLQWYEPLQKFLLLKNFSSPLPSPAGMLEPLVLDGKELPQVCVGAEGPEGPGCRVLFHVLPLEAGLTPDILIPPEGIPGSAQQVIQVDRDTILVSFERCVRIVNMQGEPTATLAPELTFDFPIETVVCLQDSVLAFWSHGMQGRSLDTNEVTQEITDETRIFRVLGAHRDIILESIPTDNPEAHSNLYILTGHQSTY", "conditions": "MAP4K2 (GCK), 10 μM", "method": "as §1, §2, §3"}, "[12]": {"target": "kinase named in conditions (Homo sapiens, UniProt Q9BXA7)", "conditions": "STK22D (TSSK1), 10 μM", "method": "as §1, §2, §3"}, "[13]": {"target": "kinase named in conditions (Homo sapiens, UniProt P51812)", "conditions": "RPS6KA3 (RSK2), 10 μM", "method": "as §1, §2, §3"}, "[14]": {"target": "kinase named in conditions (Homo sapiens, UniProt P22455)", "conditions": "FGFR4, 10 μM", "method": "as §1, §2, §3"}, "[15]": {"target": "kinase named in conditions (Homo sapiens, UniProt Q9Y6E0)", "conditions": "STK24 (MST3), 10 μM", "method": "as §1, §2, §3"}, "[16]": {"target": "kinase named in conditions (Homo sapiens, UniProt Q8NE63)", "conditions": "HIPK4, 10 μM", "method": "as §1, §2, §3"}, "[17]": {"target": "kinase named in conditions (Homo sapiens, UniProt Q16512)", "conditions": "PKN1 (PRK1), 10 μM", "method": "as §1, §2, §3"}, "[18]": {"target": "kinase named in conditions (Homo sapiens, UniProt Q9H792)", "conditions": "PEAK1, 10 μM", "method": "as §1, §2, §3"}, "[19]": {"target": "kinase named in conditions (Homo sapiens, UniProt P51955)", "conditions": "NEK2, 10 μM", "method": "as §1, §2, §3"}, "[20]": {"target": "kinase named in conditions (Homo sapiens, UniProt Q16539)", "sequence (Q16539 whole entry)": "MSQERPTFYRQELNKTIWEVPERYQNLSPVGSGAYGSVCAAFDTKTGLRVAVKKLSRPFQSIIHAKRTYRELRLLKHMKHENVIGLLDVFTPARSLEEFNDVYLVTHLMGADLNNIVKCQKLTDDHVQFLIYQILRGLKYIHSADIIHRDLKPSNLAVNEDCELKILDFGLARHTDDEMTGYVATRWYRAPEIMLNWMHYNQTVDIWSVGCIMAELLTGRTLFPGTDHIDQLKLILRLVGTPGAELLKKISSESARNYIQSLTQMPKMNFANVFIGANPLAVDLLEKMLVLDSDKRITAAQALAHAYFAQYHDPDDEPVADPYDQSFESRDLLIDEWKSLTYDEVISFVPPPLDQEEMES", "conditions": "10 μM", "method": "as §1, §2, §3"}, "[21]": {"target": "kinase named in conditions (Homo sapiens, UniProt P34947)", "conditions": "GRK5, 10 μM", "method": "as §1, §2, §3"}, "[22]": {"target": "kinase named in conditions (Homo sapiens, UniProt P42679)", "conditions": "MATK (HYL), 10 μM", "method": "as §1, §2, §3"}, "[23]": {"target": "kinase named in conditions (Homo sapiens, UniProt P36888, D835Y)", "conditions": "FLT3 D835Y, 10 μM", "method": "as §1, §2, §3"}, "[24]": {"target": "kinase named in conditions (Homo sapiens, UniProt Q9UL54)", "conditions": "TAOK2 (TAO1), 10 μM", "method": "as §1, §2, §3"}, "[25]": {"target": "kinase named in conditions (Homo sapiens, UniProt P07332)", "conditions": "FES (FPS), 10 μM", "method": "as §1, §2, §3"}, "[26]": {"target": "kinase named in conditions (Homo sapiens, UniProt P24723)", "conditions": "PRKCH (PKC eta), 10 μM", "method": "as §1, §2, §3"}, "[27]": {"target": "kinase named in conditions (Homo sapiens, UniProt Q96L34)", "conditions": "MARK4, 10 μM", "method": "as §1, §2, §3"}, "[28]": {"target": "kinase named in conditions (Homo sapiens, UniProt Q16644)", "conditions": "MAPKAPK3, 10 μM", "method": "as §1, §2, §3"}, "[29]": {"target": "kinase named in conditions (Homo sapiens, UniProt P08631)", "sequence (P08631 whole entry)": "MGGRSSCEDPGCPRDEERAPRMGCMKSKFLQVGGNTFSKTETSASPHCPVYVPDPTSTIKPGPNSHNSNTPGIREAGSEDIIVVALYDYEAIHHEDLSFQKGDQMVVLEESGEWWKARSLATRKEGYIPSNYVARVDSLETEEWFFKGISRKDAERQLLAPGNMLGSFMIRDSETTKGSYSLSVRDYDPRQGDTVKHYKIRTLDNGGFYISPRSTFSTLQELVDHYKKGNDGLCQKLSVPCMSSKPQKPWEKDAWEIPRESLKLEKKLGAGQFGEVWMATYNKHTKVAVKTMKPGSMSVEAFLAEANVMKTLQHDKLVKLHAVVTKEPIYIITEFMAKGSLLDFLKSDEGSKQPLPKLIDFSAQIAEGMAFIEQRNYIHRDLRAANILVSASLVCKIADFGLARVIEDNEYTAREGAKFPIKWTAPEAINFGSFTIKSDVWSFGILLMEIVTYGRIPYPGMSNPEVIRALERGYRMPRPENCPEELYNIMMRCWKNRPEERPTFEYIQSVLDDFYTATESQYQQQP", "conditions": "HCK, 10 μM", "method": "as §1, §2, §3"}, "[30]": {"target": "kinase named in conditions (Homo sapiens, UniProt P54764)", "conditions": "EPHA4, 10 μM", "method": "as §1, §2, §3"}, "[31]": {"target": "kinase named in conditions (Homo sapiens, UniProt Q9UQM7)", "conditions": "CAMK2A (CaMKII alpha), 10 μM", "method": "as §1, §2, §3"}, "[32]": {"target": "kinase named in conditions (Homo sapiens, UniProt Q12866)", "conditions": "MERTK (cMER), 10 μM", "method": "as §1, §2, §3"}, "[33]": {"target": "kinase named in conditions (Homo sapiens, UniProt P49840)", "conditions": "GSK3A (GSK3 alpha), 10 μM", "method": "as §1, §2, §3"}, "[34]": {"target": "kinase named in conditions (Homo sapiens, UniProt P21802, N549H)", "conditions": "FGFR2 N549H, 10 μM", "method": "as §1, §2, §3"}}}
{"smiles": "FC(F)(F)c1c(Cl)ccc(-n2ccnn2)c1Cl", "note": "[8l, 1-(2,4-Dichloro-3-(trifluoromethyl)phenyl)-1H-1,2,3-triazole]", "values": [{"measurement": "inhibition at 10 µM", "setting": "[1]", "result": 0, "unit": "%"}, {"measurement": "inhibition at 10 µM", "setting": "[2]", "result": 6, "unit": "%"}, {"measurement": "inhibition at 10 µM", "setting": "[3]", "result": 15, "unit": "%"}, {"measurement": "inhibition at 10 µM", "setting": "[4]", "result": 2, "unit": "%"}, {"measurement": "inhibition at 10 µM", "setting": "[5]", "result": -2, "unit": "%"}, {"measurement": "inhibition at 10 µM", "setting": "[6]", "result": 2, "unit": "%"}, {"measurement": "inhibition at 10 µM", "setting": "[7]", "result": -4, "unit": "%"}, {"measurement": "inhibition at 10 µM", "setting": "[8]", "result": 2, "unit": "%"}, {"measurement": "inhibition at 10 µM", "setting": "[9]", "result": 2, "unit": "%"}, {"measurement": "inhibition at 10 µM", "setting": "[10]", "result": 11, "unit": "%"}, {"measurement": "inhibition at 10 µM", "setting": "[11]", "result": -3, "unit": "%"}, {"measurement": "inhibition at 10 µM", "setting": "[12]", "result": -5, "unit": "%"}, {"measurement": "inhibition at 10 µM", "setting": "[13]", "result": -3, "unit": "%"}, {"measurement": "inhibition at 10 µM", "setting": "[14]", "result": 2, "unit": "%"}, {"measurement": "inhibition at 10 µM", "setting": "[15]", "result": 5, "unit": "%"}, {"measurement": "inhibition at 10 µM", "setting": "[16]", "result": -2, "unit": "%"}, {"measurement": "inhibition at 10 µM", "setting": "[17]", "result": -1, "unit": "%"}, {"measurement": "inhibition at 10 µM", "setting": "[18]", "result": 20, "unit": "%"}, {"measurement": "inhibition at 10 µM", "setting": "[19]", "result": -11, "unit": "%"}, {"measurement": "inhibition at 10 µM", "setting": "[20]; MAPK14 (p38 alpha) Direct", "result": -3, "unit": "%"}, {"measurement": "inhibition at 10 µM", "setting": "[20]; MAPK14 (p38 alpha)", "result": -1, "unit": "%"}, {"measurement": "inhibition at 10 µM", "setting": "[21]", "result": -2, "unit": "%"}, {"measurement": "inhibition at 10 µM", "setting": "[22]", "result": -11, "unit": "%"}, {"measurement": "inhibition at 10 µM", "setting": "[23]", "result": 3, "unit": "%"}, {"measurement": "inhibition at 10 µM", "setting": "[24]", "result": -8, "unit": "%"}, {"measurement": "inhibition at 10 µM", "setting": "[25]", "result": 6, "unit": "%"}, {"measurement": "inhibition at 10 µM", "setting": "[26]", "result": -1, "unit": "%"}, {"measurement": "inhibition at 10 µM", "setting": "[27]", "result": -2, "unit": "%"}, {"measurement": "inhibition at 10 µM", "setting": "[28]", "result": 1, "unit": "%"}, {"measurement": "inhibition at 10 µM", "setting": "[29]", "result": 10, "unit": "%"}, {"measurement": "inhibition at 10 µM", "setting": "[30]", "result": 1, "unit": "%"}, {"measurement": "inhibition at 10 µM", "setting": "[31]", "result": -2, "unit": "%"}, {"measurement": "inhibition at 10 µM", "setting": "[32]", "result": 5, "unit": "%"}, {"measurement": "inhibition at 10 µM", "setting": "[33]", "result": 7, "unit": "%"}, {"measurement": "inhibition at 10 µM", "setting": "[34]", "result": 17, "unit": "%"}]}
